# Experimental data published in patent US8455475B2 (Gruenenthal GmbH, priority 2009, dated 2013).
# Legend:
# [1] = target: T1, human B1R (bradykinin receptor 1) (Homo sapiens, UniProt P46663); experiment: FLIPR Ca2+ assay (Fluo-4) on CHO K1 cells stably transfected with the human B1R gene (hB1R cells): % inhibition at 10 μM / IC50, agonist Lys-Des-Arg9-bradykinin; format: cell-based; details: for inhibition at 10 µM: CHO-K1, human B1R
# T1 construct: expressed in transfected cells; host or cells: CHO K1 cells
# T1 sequence (P46663 1-353): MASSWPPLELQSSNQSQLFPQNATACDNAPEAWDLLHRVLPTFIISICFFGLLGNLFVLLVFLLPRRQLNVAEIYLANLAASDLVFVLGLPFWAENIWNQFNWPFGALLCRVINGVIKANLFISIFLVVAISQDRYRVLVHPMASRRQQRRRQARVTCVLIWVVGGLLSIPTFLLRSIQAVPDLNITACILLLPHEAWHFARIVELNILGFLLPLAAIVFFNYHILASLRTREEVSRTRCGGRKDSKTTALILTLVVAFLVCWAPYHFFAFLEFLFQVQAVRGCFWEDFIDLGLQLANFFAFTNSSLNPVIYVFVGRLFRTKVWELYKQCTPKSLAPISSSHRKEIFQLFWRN
# How it was run: (§1)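 Antagonism is measured as the drop in peak Fluo-4 Ca2+ signal when the EC80 agonist follows 10–20 min compound exposure. The single-point screen uses 10 μM; IC50 uses several concentrations. Values are given as % of maximal achievable inhibition.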
# [2] = target: T2, rat B1R (bradykinin receptor 1) (Rattus norvegicus, UniProt P97583); experiment: FLIPR Ca2+ assay (Fluo-4) on CHO K1 cells stably transfected with the B1R gene of the rat (rB1R cells): % inhibition at 10 μM / IC50, agonist Des-Arg9-bradykinin; format: cell-based; details: for inhibition at 10 µM: CHO-K1, rat B1R
# T2 construct: expressed in transfected cells; host or cells: CHO K1 cells
# T2 sequence (P97583 1-337): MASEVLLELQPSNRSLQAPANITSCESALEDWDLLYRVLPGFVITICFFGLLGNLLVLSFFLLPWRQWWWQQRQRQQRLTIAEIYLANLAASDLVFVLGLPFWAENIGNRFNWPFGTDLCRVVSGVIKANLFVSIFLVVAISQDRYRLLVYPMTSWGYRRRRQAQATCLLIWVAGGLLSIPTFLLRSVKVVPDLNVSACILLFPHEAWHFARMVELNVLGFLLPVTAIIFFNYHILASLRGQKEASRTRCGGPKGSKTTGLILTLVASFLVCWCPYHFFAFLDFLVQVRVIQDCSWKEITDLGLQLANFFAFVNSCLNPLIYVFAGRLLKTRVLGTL
# How it was run: as §1
inhibition at 10 µM [1],inhibition at 10 µM [2],% Inhibition (human B1R) at 10 μM ([1]; human B1R),% Inhibition (rat B1R) at 10 μM ([2]; rat B1R),SMILES
99%,103%,,,"CC1(C)CC(NC(=O)Cc2ccccc2Cl)c2cc(C(=O)N3CCC4(CC3)CCN(c3ccncc3)CC4)ccc21 (stereo not shown) [Ind_CC-053, 2-(2-chlorophenyl)-N-[3,3-dimethyl-6-(9-pyridin-4-yl-3,9-diazaspiro[5.5]undecane-3-carbonyl)-1,2-dihydro-inden-1-yl]-acetamide]"
96%,102%,,,"CC1(C)CC(NC(=O)c2ccc(Cl)s2)c2cc(C(=O)N3CCC4(CC3)CCN(c3ccncc3)CC4)ccc21 (stereo not shown) [Ind_CC-054, 5-chloro-N-[3,3-dimethyl-6-(9-pyridin-4-yl-3,9-diazaspiro[5.5]undecane-3-carbonyl)-1,2-dihydro-inden-1-yl]-thiophene-2-carboxylic acid amide]"
99%,102%,,,"CC1(C)CC(NC(=O)c2sccc2Cl)c2cc(C(=O)N3CCC4(CC3)CCN(c3ccncc3)CC4)ccc21 (stereo not shown) [Ind_CC-055, 3-chloro-N-[3,3-dimethyl-6-(9-pyridin-4-yl-3,9-diazaspiro[5.5]undecane-3-carbonyl)-1,2-dihydro-inden-1-yl]-thiophene-2-carboxylic acid amide]"
,,35%,80%,CC1(C)CC(NC(=O)Nc2ccc(Cl)c(Cl)c2)c2cc(C(=O)N3CCC4(CC3)CCN(c3ccncc3)CC4)ccc21 (stereo not shown) [Ind_CC-057]

# The next lines start with the molecule.
SMILES,inhibition at 10 µM [1],inhibition at 10 µM [2],% Inhibition (human B1R) at 10 μM ([1]; human B1R),% Inhibition (rat B1R) at 10 μM ([2]; rat B1R)
"O=C(NCc1ccccc1Cl)NC1CCc2ccc(C(=O)N3CCC4(CC3)CCN(c3ccncc3)C4)cc21 (stereo not shown) [Ind_CC-048, 1-[(2-chlorophenyl)-methyl]-3-[6-(2-pyridin-4-yl-2,8-diazaspiro[4.5]decane-8-carbonyl)-2,3-dihydro-1H-inden-1-yl]-urea]",98%,88%,,
"O=C(c1ccc2c(c1)C(NS(=O)(=O)c1ccccc1Cl)CC2)N1CCC2(CC1)CCN(c1ccncc1)C2 (stereo not shown) [Ind_CC-049, 2-chloro-N-[6-(2-pyridin-4-yl-2,8-diazaspiro[4.5]decane-8-carbonyl)-2,3-dihydro-1H-inden-1-yl]-benzenesulfonic acid amide]",99%,101%,,
"COc1cc(C)c(S(=O)(=O)NC2CCc3ccc(C(=O)N4CCC5(CC4)CCN(c4ccncc4)C5)cc32)c(C)c1 (stereo not shown) [Ind_CC-050, 4-methoxy-2,6-dimethyl-N-[6-(2-pyridin-4-yl-2,8-diazaspiro[4.5]decane-8-carbonyl)-2,3-dihydro-1H-inden-1-yl]-benzenesulfonic acid amide]",100%,93%,,
"O=C(NC1CCc2ccc(C(=O)N3CCC4(CC3)CCN(c3ccncc3)C4)cc21)C(c1ccccc1)c1ccccc1Cl (stereo not shown) [Ind_CC-051, 2-(2-chlorophenyl)-2-phenyl-N-[6-(2-pyridin-4-yl-2,8-diazaspiro[4.5]decane-8-carbonyl)-2,3-dihydro-1H-inden-1-yl]-acetamide]",71%,99%,,
"CC1(C)CC(NC(=O)c2ccccn2)c2cc(C(=O)N3CCC4(CC3)CCN(c3ccncc3)CC4)ccc21 (stereo not shown) [Ind_CC-052, N-[3,3-dimethyl-6-(9-pyridin-4-yl-3,9-diazaspiro[5.5]undecane-3-carbonyl)-1,2-dihydro-inden-1-yl]-pyridine-2-carboxylic acid amide]",62%,81%,,
"CC1(C)CC(NC(=O)C(c2ccccc2)c2ccccc2Cl)c2cc(C(=O)N3CCC4(CC3)CCN(c3ccncc3)CC4)ccc21 (stereo not shown) [Ind_CC-056, 2-(2-chlorophenyl)-N-[3,3-dimethyl-6-(9-pyridin-4-yl-3,9-diazaspiro[5.5]-undecane-3-carbonyl)-1,2-dihydro-inden-1-yl]-2-phenyl-acetamide]",41%,94%,,
"CC1(C)CC(NC(=O)c2ccccc2C(F)(F)F)c2cc(C(=O)N3CCC4(CC3)CCN(c3ccncc3)CC4)ccc21 (stereo not shown) [Ind_CC-058, N-[3,3-dimethyl-6-(9-pyridin-4-yl-3,9-diazaspiro[5.5]undecane-3-carbonyl)-1,2-dihydro-inden-1-yl]-2-(trifluoromethyl)-benzamide]",100%,101%,,
